The values that follow come from patent publication US20110192396A1, “PHARMACEUTICAL COMPOSITION FOR PREVENTING OR TREATING CHRONIC OBSTRUCTIVE PULMONARY DISEASE” (DAEWOONG CO., LTD., priority 2008, published 2011).

Experiment [1] deals with MUC5AC gene expression in NCI-H292 cells. The experiment can be described thus: Suppression of MUC5AC mucus gene expression in PA-LPS/TGF-α-treated NCI-H292 cells (real time PCR). It counts as cell-based, human. The settings on record: 50 ng/mL EGF; NCI-H292 cells pre-treated with PA-LPS and TGF-α for 6 hours; vs control with PA-LPS and TGF-α only. For orientation: Real-time PCR tracks product formation cycle by cycle.
Description: NCI-H292 cells (ATCC, CRL-1848) were divided into a 6-well plate such that the number of the NCI-H292 cells per well was 10^6. The NCI-H292 cells were incubated in a 5% CO2 incubator at 37° C. for one day. The NCI-H292 cells were incubated in a serum free medium for one day, and then treated with 100 mg/mL of Pseudomonas aeruginosa lipopolysaccharide (PA-LPS, Sigma L8643) and 10 ng/mL of a transforming growth factor-alpha (TGF-α R&D systems 239-a-100) at the same time for 6 hours to induce overexpression of MUC5AC mucus. The PA-LPS and TGF-α were removed, and epidermal growth factors (EGFs) having different concentrations were added to the NCI-H292 cells. […]
RNA was isolated using a kit manufactured by QIAGEN (RNeasy Plus Mini Kit, 74134) according to the manuals provided by the manufacturer in order to isolate entire RNA. Absorbance of the isolated RNA was measured using a spectrophotometer at a wavelength of 260 nm to quantitatively analyze RNA. […]
A SYBR green assay was performed by adding cDNA, a forward primer, and a reverse primer to 12.5 mL of a SYBR green PCR master mix (Applied Biosystems, 4309155) such that the total volume of the mixture was set to 25 mL. […] The determined concentrations of the primers for MUC5AC, ICAM-1, RPL1 were respectively 900 nM, and the concentration β-ACT thereof was 300 nM. […]

Experiment [2] concerns PPE-induced emphysema model. The experiment can be described thus: PPE-induced rat emphysema model, histopathological examination of lung and trachea. It is filed as in vivo, Sprague-Dawley rats. As to the method:
6-week old male Sprague-Dawley rats (Japan SLC, Inc) having an average weight ranging from 200 to 250 g were accommodated for 1 week to prepare 7-week old rats. The rats were raised in individual ventilated cage (IVC) racks (GR900 plus rat cage, Polysulfone, 355 W×405 I×230 H mm) at a constant temperature (22±3° C.) at a constant relative humidity (55±15%) using fluorescent lamps (lights are on 08:00 to 20:00) for 12 hours, and food and water were fed ad libitum (solid feed 5L79, Orient Co., Ltd.). 120 U/kg, 1 mL/kg of pig pancreas elastase (PPE, Merck 324682) was administered once by intratracheal instillation to rats anesthetized with isoflurane. 1 mL/kg of 0.9% saline was administered once by intratracheal instillation to rats in the group in which emphysema was not induced. In order to uniformly administer test article into lung cavity, the same amount of air as the administered substances was administered during the intratracheal instillation. […] After 7 weeks from the PPE administration, the rats were anesthetized with isoflurane, and the lung and the trachea were isolated and fixed using 10% neutral formalin. Then histopathological examination of the lung and the trachea were performed and microscopic images were obtained. The test results were represented as average ±standard deviation. In order to detect a test group statistically significant from a control group, the results were statistically tested using one way ANOVA, and significance was analyzed using a multiple comparison method. […] In addition, FIGS. 7 and 8 illustrated the results of the tissue pathological tests of tracheas and lungs with a table.

For experiment [3], the system named is MLE-12 cells. The experiment can be described thus: Protection of alveolar cells from elastase cell toxicity, neutral red uptake (NRU) assay. It is filed as cell-based, murine. The following applies: 100 μg/mL EGF; 2 U/mL elastase; elastase only = 100%, medium only = 0% cell toxicity. On the procedure: MLE-12 cells were divided into a 96-well plate such that the number of MLE-12 cells per well was […]. The MLE-12 cells were incubated in 5% CO2 incubator at 37° C. for one day. […] A neutral red uptake (NRU) assay was performed using a neutral red that dyes only living cells to measure the degree of cell death. […] The cells were fixed using a fixing solution (1% formaldehyde, 1% CaCl2) for 1 minute, and the neutral red dye reagent was extracted using a chromogenic solution including 50% ethanol and 1% glacial acetic acid. Then, light absorbance was measured at a wavelength of 540 nm.

Setting [4] is: G3: 0.1 mg/kg EGF intratracheal instillation, once a week for 3 weeks, rats.

On to “EGF: recombinant proteins having the same amino acid sequence as natural human epidermal growth factor (hEGF); 53 amino acids, SEQ ID NO: 1”, for which the “reduction of expression of MUC5AC” value in experiment [1] is 65%. In addition, the “degree and number of enlargement and breakdown of alveoli compared with the control group of PPE-induced emphysema model” value in experiment [2] (G3, group with emphysema treated with EGF) is “reduced”. For the same substance, in experiment [2] (setting [4]), the “cases with mild breakdown of alveoli” value is 3 cases, the “cases with mild enlargement of alveoli” value amounted to 3 cases, the “cases with moderate breakdown of alveoli” value is reported as 1 case and the “cases with moderate enlargement of alveoli” value came out at 1 case. In experiment [2] (setting [4]), the “cases with very mild breakdown of alveoli” value is 1 case, the “cases with very mild enlargement of alveoli” value was found to be 2 cases and the “cases with very mild histiocytosis” value amounted to 1 case. Moreover, in experiment [3], the “reduction of cell toxicity” value is “about 15%”.
